Data on seven compounds can be found in ChEMBL document CHEMBL1138993, “Thyroid receptor ligands. Part 5: novel bicyclic agonist ligands selective for the thyroid hormone receptor beta” (Bioorg Med Chem Lett, 2006).

Test [1] deals with T1, Thyroid hormone receptor alpha (Homo sapiens, UniProt P10827).
T1 sequence (P10827 whole entry): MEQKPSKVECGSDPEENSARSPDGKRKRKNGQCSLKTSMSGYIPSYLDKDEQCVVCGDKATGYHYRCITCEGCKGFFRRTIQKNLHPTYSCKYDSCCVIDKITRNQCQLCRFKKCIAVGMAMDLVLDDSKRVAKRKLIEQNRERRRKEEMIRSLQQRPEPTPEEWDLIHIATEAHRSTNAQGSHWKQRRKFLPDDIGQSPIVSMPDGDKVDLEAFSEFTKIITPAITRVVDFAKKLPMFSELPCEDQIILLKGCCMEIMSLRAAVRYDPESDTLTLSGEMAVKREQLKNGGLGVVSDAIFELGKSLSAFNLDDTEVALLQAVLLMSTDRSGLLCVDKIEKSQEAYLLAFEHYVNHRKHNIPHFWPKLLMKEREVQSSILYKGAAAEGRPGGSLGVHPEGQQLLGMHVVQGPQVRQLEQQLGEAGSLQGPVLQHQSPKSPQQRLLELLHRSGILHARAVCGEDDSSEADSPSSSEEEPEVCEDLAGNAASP
Description: Inhibition of human TR-alpha-1 by radioligand binding assay

Test [2] has as its target T1, Thyroid hormone receptor alpha. This is another data set of the same source.
Description: Efficacy against TRAF-alpha-1 reporter cells
The target of test [3] is T2, Thyroid hormone receptor beta (Homo sapiens, UniProt P10828).
T2 sequence (P10828 whole entry): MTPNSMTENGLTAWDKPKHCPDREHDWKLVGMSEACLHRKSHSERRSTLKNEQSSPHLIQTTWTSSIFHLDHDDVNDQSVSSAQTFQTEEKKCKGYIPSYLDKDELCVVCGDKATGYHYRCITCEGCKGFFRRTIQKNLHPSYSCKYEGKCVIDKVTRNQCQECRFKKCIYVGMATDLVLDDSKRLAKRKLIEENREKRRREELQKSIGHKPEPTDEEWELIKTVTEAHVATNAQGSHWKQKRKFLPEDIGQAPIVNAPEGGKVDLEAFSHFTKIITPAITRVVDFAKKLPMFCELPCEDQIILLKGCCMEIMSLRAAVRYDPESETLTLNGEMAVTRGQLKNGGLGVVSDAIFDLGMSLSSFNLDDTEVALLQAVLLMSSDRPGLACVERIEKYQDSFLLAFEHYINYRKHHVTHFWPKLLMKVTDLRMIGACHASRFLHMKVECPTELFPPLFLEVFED
Description: Inhibition of human TR-beta-1 by radioligand binding assay

In test [4] the target is T2, Thyroid hormone receptor beta. The source holds these as a separate data set.
Description: Efficacy against TRAF-beta-1 reporter cells

pEC50, pIC50: −log10 of the molar value.

Consider `Cc1cc2nc(C(=O)O)ccc2c(C)c1Oc1ccc(O)c(C(C)C)c1`, for which the pIC50 in test [1] is 6.70; in test [3], 7.82. In addition, the pEC50 in test [2] was 7.08; in test [4] it was 7.31.

`CC(C)c1cc(Oc2c(Cl)cc3[nH]c(C(=O)O)cc3c2Cl)ccc1O` had a negative-log IC50 (pIC50) in test [1] of 8.85. In test [2], this compound had a pEC50 of 8.00.

For the compound `CC(C)c1cc(Oc2c(Br)cc3c(c2Br)CC(C(=O)O)C3)ccc1O` (stereo not given), the results for the negative-log IC50 (pIC50) in test [1] and in test [3] were 7.42 and 8.07, respectively. The pEC50 in test [2] is 8.39; in test [4] it was 8.37.

`CC(C)c1cc(Oc2c(Cl)cc3[nH]c(C(=O)O)cc(=O)c3c2Cl)ccc1O`: the negative-log IC50 (pIC50) is 5.46 in test [1] and 6.06 in test [3].

With `Cc1cc2[nH]c(C(=O)O)cc(=O)c2c(C)c1Oc1ccc(O)c(C(C)C)c1`, the results for the negative logarithm of the IC50 (pIC50) in test [1] and in test [3] were 6.21 and 6.62, respectively.

With `CC(C)c1cc(Oc2c(Br)cc3nc(C(=O)O)cc(O)c3c2Br)ccc1O`, the pIC50 is 6.60 in test [1] and 7.29 in test [3].

As for `CC(C)c1cc(Oc2c(Br)cc3[nH]c(C(=O)O)cc3c2Br)ccc1O`, the pIC50 in test [1] was 8.60; in test [3], 9.55. Moreover, the negative-log EC50 (pEC50) is 8.00 in test [2] and 8.38 in test [4].

As a reminder, the pIC50 is −log10 of the IC50, conventionally taken in molar units. Low readings indicate a large IC50, high ones a small IC50. For orientation: pEC50 means −log10 of the EC50, conventionally taken in molar units. Read a low pEC50 as a large EC50.
